Counter-ions that a name gives are not always drawn.
Key:
Conditions in all cases: exposure time: 72 h
E13 [1] = patient-derived glioblastoma stem cells of classical subtype; experiment: surviving fraction (nuclei count normalised to DMSO); higher = more cells surviving (less toxic)
E21 [2] = patient-derived glioblastoma stem cells of mesenchymal subtype; experiment: as above
E28 [3] = patient-derived glioblastoma stem cells of classical subtype; experiment: as above
E31 [4] = patient-derived glioblastoma stem cells of proneural subtype; experiment: as above
E34 [5] = patient-derived glioblastoma stem cells of proneural subtype; experiment: as above
E57 [6] = patient-derived glioblastoma stem cells of mesenchymal subtype; experiment: as above
FT3469 [7] = normal neural stem cell line; experiment: as above
E13 [8] = experiment: phenotypic distance (Euclidean, principal components) from DMSO controls (arbitrary units); higher = stronger morphological change
E21 [9] = experiment: as above
E28 [10] = experiment: as above
E31 [11] = experiment: as above
E34 [12] = experiment: as above
E57 [13] = experiment: as above
FT3469 [14] = experiment: as above
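For phenotypic distance (Euclidean, principal components) from DMSO controls in this document: cell Painting imaging in 384-well plates, CellProfiler features reduced to at least 20 principal components, Euclidean distance versus same-plate DMSO vehicle wells (0.1% v/v), median over six images per well.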
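For surviving fraction (nuclei count normalised to DMSO) in this document: nuclei counted by high-content imaging of Hoechst-stained cells in laminin-coated 384-well plates, relative to 0.1% DMSO vehicle wells, with staurosporine as cell-death control.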

COc1cc(NS(C)(=O)=O)ccc1Nc1c2ccccc2nc2ccccc12 [Amsacrine]
Conditions	phenotypic distance	surviving fraction
E13 [1], 4.1 nM	–	0.946
E13 [1], 12.3 nM	–	0.807
E13 [1], 37 nM	–	0.489
E13 [1], 111.1 nM	–	0.414
E13 [1], 333.3 nM	–	0.414
E13 [1], 1000 nM	–	0.387
E13 [1], 3000 nM	–	0.132
E13 [8], 4.1 nM	0.565	–
E13 [8], 12.3 nM	1.43	–
E13 [8], 37 nM	4.51	–
E13 [8], 111.1 nM	6.51	–
E13 [8], 333.3 nM	6.57	–
E13 [8], 1000 nM	6.84	–
E13 [8], 3000 nM	7.75	–
E21 [2], 4.1 nM	–	0.908
E21 [2], 12.3 nM	–	1.08
E21 [2], 37 nM	–	0.72
E21 [2], 111.1 nM	–	0.45
E21 [2], 333.3 nM	–	0.388
E21 [2], 1000 nM	–	0.197
E21 [2], 3000 nM	–	0.0813
E21 [9], 4.1 nM	0.893	–
E21 [9], 12.3 nM	1.83	–
E21 [9], 37 nM	2.5	–
E21 [9], 111.1 nM	6.57	–
E21 [9], 333.3 nM	6.68	–
E21 [9], 1000 nM	5.68	–
E21 [9], 3000 nM	7.87	–
E28 [3], 4.1 nM	–	0.875
E28 [3], 12.3 nM	–	0.529
E28 [3], 37 nM	–	0.427
E28 [3], 111.1 nM	–	0.474
E28 [3], 333.3 nM	–	0.374
E28 [3], 1000 nM	–	0.467
E28 [3], 3000 nM	–	0.126
E28 [10], 4.1 nM	1.15	–
E28 [10], 12.3 nM	2.1	–
E28 [10], 37 nM	3.15	–
E28 [10], 111.1 nM	2.93	–
E28 [10], 333.3 nM	3.24	–
E28 [10], 1000 nM	3.28	–
E28 [10], 3000 nM	4.07	–
E31 [4], 4.1 nM	–	0.573
E31 [4], 12.3 nM	–	0.509
E31 [4], 37 nM	–	0.314
E31 [4], 111.1 nM	–	0.247
E31 [4], 333.3 nM	–	0.288
E31 [4], 1000 nM	–	0.244
E31 [4], 3000 nM	–	0.0342
E31 [11], 4.1 nM	1.63	–
E31 [11], 12.3 nM	3.02	–
E31 [11], 37 nM	3.7	–
E31 [11], 111.1 nM	3.82	–
E31 [11], 333.3 nM	2.97	–
E31 [11], 1000 nM	3	–
E31 [11], 3000 nM	6.79	–
E34 [5], 4.1 nM	–	0.977
E34 [5], 12.3 nM	–	0.867
E34 [5], 37 nM	–	0.823
E34 [5], 111.1 nM	–	0.552
E34 [5], 333.3 nM	–	0.493
E34 [5], 1000 nM	–	0.484
E34 [5], 3000 nM	–	0.379
E34 [12], 4.1 nM	0.614	–
E34 [12], 12.3 nM	1.45	–
E34 [12], 37 nM	2.78	–
E34 [12], 111.1 nM	6.15	–
E34 [12], 333.3 nM	5.83	–
E34 [12], 1000 nM	4.78	–
E34 [12], 3000 nM	3.81	–
E57 [6], 4.1 nM	–	0.935
E57 [6], 12.3 nM	–	0.759
E57 [6], 37 nM	–	0.484
E57 [6], 111.1 nM	–	0.21
E57 [6], 333.3 nM	–	0.192
E57 [6], 1000 nM	–	0.161
E57 [6], 3000 nM	–	0.0825
E57 [13], 4.1 nM	0.741	–
E57 [13], 12.3 nM	2.05	–
E57 [13], 37 nM	4.75	–
E57 [13], 111.1 nM	10.6	–
E57 [13], 333.3 nM	10.7	–
E57 [13], 1000 nM	8.66	–
E57 [13], 3000 nM	6.92	–
FT3469 [7], 4.1 nM	–	0.745
FT3469 [7], 12.3 nM	–	0.751
FT3469 [7], 37 nM	–	0.593
FT3469 [7], 111.1 nM	–	0.731
FT3469 [7], 333.3 nM	–	0.745
FT3469 [7], 1000 nM	–	0.645
FT3469 [7], 3000 nM	–	0.363
FT3469 [14], 4.1 nM	0.866	–
FT3469 [14], 12.3 nM	1.42	–
FT3469 [14], 37 nM	1.99	–
FT3469 [14], 111.1 nM	2.25	–
FT3469 [14], 333.3 nM	2.14	–
FT3469 [14], 1000 nM	2.2	–
FT3469 [14], 3000 nM	3.03	–

N=c1ccn2c(n1)O[C@H]1[C@H](O)[C@@H](CO)O[C@H]12 [Ancitabine hydrochloride]
Conditions	phenotypic distance	surviving fraction
E13 [1], 4.1 nM	–	0.857
E13 [1], 12.3 nM	–	0.724
E13 [1], 37 nM	–	0.884
E13 [1], 111.1 nM	–	0.812
E13 [1], 333.3 nM	–	0.716
E13 [1], 1000 nM	–	0.67
E13 [1], 3000 nM	–	0.49
E13 [8], 4.1 nM	1.7	–
E13 [8], 12.3 nM	1.23	–
E13 [8], 37 nM	1.32	–
E13 [8], 111.1 nM	1.29	–
E13 [8], 333.3 nM	2.15	–
E13 [8], 1000 nM	3.33	–
E13 [8], 3000 nM	5.43	–
E21 [2], 4.1 nM	–	0.896
E21 [2], 12.3 nM	–	0.889
E21 [2], 37 nM	–	0.909
E21 [2], 111.1 nM	–	0.832
E21 [2], 333.3 nM	–	0.693
E21 [2], 1000 nM	–	0.636
E21 [2], 3000 nM	–	0.422
E21 [9], 4.1 nM	1.35	–
E21 [9], 12.3 nM	1.44	–
E21 [9], 37 nM	1.87	–
E21 [9], 111.1 nM	2.14	–
E21 [9], 333.3 nM	3.95	–
E21 [9], 1000 nM	5.57	–
E21 [9], 3000 nM	6.36	–
E28 [3], 4.1 nM	–	0.837
E28 [3], 12.3 nM	–	1.18
E28 [3], 37 nM	–	0.826
E28 [3], 111.1 nM	–	0.886
E28 [3], 333.3 nM	–	0.687
E28 [3], 1000 nM	–	0.653
E28 [3], 3000 nM	–	0.482
E28 [10], 4.1 nM	2.22	–
E28 [10], 12.3 nM	2	–
E28 [10], 37 nM	1.29	–
E28 [10], 111.1 nM	1.66	–
E28 [10], 333.3 nM	1.88	–
E28 [10], 1000 nM	2.56	–
E28 [10], 3000 nM	2.87	–
E31 [4], 4.1 nM	–	0.978
E31 [4], 12.3 nM	–	0.749
E31 [4], 37 nM	–	0.721
E31 [4], 111.1 nM	–	0.594
E31 [4], 333.3 nM	–	0.669
E31 [4], 1000 nM	–	0.394
E31 [4], 3000 nM	–	0.176
E31 [11], 4.1 nM	1.4	–
E31 [11], 12.3 nM	1.46	–
E31 [11], 37 nM	1.63	–
E31 [11], 111.1 nM	2.22	–
E31 [11], 333.3 nM	2.92	–
E31 [11], 1000 nM	3.39	–
E31 [11], 3000 nM	3.87	–
E34 [5], 4.1 nM	–	0.976
E34 [5], 12.3 nM	–	1.09
E34 [5], 37 nM	–	0.963
E34 [5], 111.1 nM	–	0.86
E34 [5], 333.3 nM	–	0.71
E34 [5], 1000 nM	–	0.689
E34 [5], 3000 nM	–	0.593
E34 [12], 4.1 nM	1.44	–
E34 [12], 12.3 nM	0.954	–
E34 [12], 37 nM	1.24	–
E34 [12], 111.1 nM	1.69	–
E34 [12], 333.3 nM	2.92	–
E34 [12], 1000 nM	3.78	–
E34 [12], 3000 nM	5.02	–
E57 [6], 4.1 nM	–	0.931
E57 [6], 12.3 nM	–	0.805
E57 [6], 37 nM	–	0.73
E57 [6], 111.1 nM	–	0.655
E57 [6], 333.3 nM	–	0.409
E57 [6], 1000 nM	–	0.321
E57 [6], 3000 nM	–	0.212
E57 [13], 4.1 nM	3.74	–
E57 [13], 12.3 nM	1.61	–
E57 [13], 37 nM	2.27	–
E57 [13], 111.1 nM	3.75	–
E57 [13], 333.3 nM	6.65	–
E57 [13], 1000 nM	7.84	–
E57 [13], 3000 nM	8.89	–
FT3469 [7], 4.1 nM	–	0.699
FT3469 [7], 12.3 nM	–	0.86
FT3469 [7], 37 nM	–	0.964
FT3469 [7], 111.1 nM	–	0.691
FT3469 [7], 333.3 nM	–	0.668
FT3469 [7], 1000 nM	–	0.679
FT3469 [7], 3000 nM	–	0.682
FT3469 [14], 4.1 nM	1.34	–
FT3469 [14], 12.3 nM	0.713	–
FT3469 [14], 37 nM	1.46	–
FT3469 [14], 111.1 nM	1.24	–
FT3469 [14], 333.3 nM	3.06	–
FT3469 [14], 1000 nM	2.47	–
FT3469 [14], 3000 nM	2.06	–

Source: the supplement of paper PMC13207355
